These results are taken from patent US12129221B2, “Difluoro phenyl amide RIP1 inhibitor” (SIRONAX LTD, priority 2018, dated 2024).

Data set [1] is described as follows: Prodrug enhanced metabolic stability: hepatocyte (H). Type of data set: in vitro ADME. The arrangement: key: +, Extrapolated. The text has this: (§1) Prodrug Enhanced Metabolic Stability: Liver Microsome (L), Hepatocyte (H) and PK
The nature of data set [2]: Prodrug enhanced metabolic stability: PK. Type of data set: in vivo. The arrangement: key: +, Extrapolated.
Excerpt: as §1

The subject of the next data set is necrosis. Nature of the data set: Necrosis inhibitory activity (cell necrosis / cell viability assay). It counts as cell-based. Particulars: Active Pro-drugs; for EC50: read-out: EC50. An excerpt:
Necrosis Inhibitory Activity
Representative IC50 of hRIP1 Kinase Assay Correlated with Our IC50 of Cell Necrosis Assay: […]

A short description of data set [3]: Prodrug enhanced metabolic stability: liver microsome (L). It counts as in vitro ADME. The arrangement: key: +, Extrapolated.
Excerpt: as §1
Background: Microsomes from liver hold many membrane-bound enzymes, among them those of drug oxidation.

On to `CCC(C)(C)C(=O)N(Cc1ccccc1)OC(=O)CC(=O)ON(Cc1ccccc1)C(=O)C(C)(C)CC` [Compound 52, N,N′-(malonylbis(oxy))bis(N-benzyl-2,2-dimethylbutanamide)], for which the H entry in data set [1] is “+”. In data set [2], the PK result is listed as “+”. In the data set with necrosis, the EC50 (in general, the concentration needed to bring the measured effect to its halfway point) worked out at 42.2 nM. Further, the L result in data set [3] was “+”.
Turning to `CCC(C)(C)C(=O)N(Cc1ccccc1)OC(=O)CCC(=O)ON(Cc1ccccc1)C(=O)C(C)(C)CC` [Compound 53, N,N′-(succinylbis(oxy))bis(N-benzyl-2,2-dimethylbutanamide)], the H entry in data set [1] is reported as “+”. The PK result in data set [2] was “+”. Moreover, the EC50 in the data set with necrosis worked out at 85.5 nM. For the same molecule, the L entry in data set [3] was “+”.
`CCC(C)(C)C(=O)N(Cc1ccccc1)OC(=O)c1cccc(C(=O)ON(Cc2ccccc2)C(=O)C(C)(C)CC)c1` [Compound 54, N,N′-(isophthaloylbis(oxy))bis(N-benzyl-2,2-dimethylbutanamide)]: in data set [1], the H entry is reported as “+”. For the same molecule, the PK result in data set [2] was “+”. Besides, the EC50 in the data set on necrosis came to 466 nM. Further, the L entry in data set [3] is listed as “+”.
On to `CCC(C)(C)C(=O)N(Cc1ccccc1)OC(=O)OCCOCCOCCOC(=O)ON(Cc1ccccc1)C(=O)C(C)(C)CC` [Compound 55, N,N′-(2,5,8,11-tetraoxadodecanedioylbis(oxy))bis(N-benzyl-2,2-dimethylbutanamide)], for which the H entry in data set [1] is “+”. Also, in data set [2], the PK result was “+”. Moreover, in the data set on necrosis, the EC50 stood at 99.3 nM. Moreover, in data set [3], the L entry is recorded as “+”.
Take `CCC(C)(C)C(=O)N(Cc1ccccc1)OC(=O)N1CCCCC1` [Compound 56, N-benzyl-2,2-dimethyl-N-((piperidine-1-carbonyl)oxy)butanamide]: the H result in data set [1] is “+”. For the same molecule, the PK entry in data set [2] is “+”. Moreover, in the data set with necrosis, the “EC50(nM)” value is recorded as “weak”. Moreover, in data set [3], the L entry was “+”.
As for `CCC(C)(C)C(=O)N(Cc1ccccc1)OC(=O)N1CCC(N2CCCCC2)CC1` [Compound 57, N-(([1,4′-bipiperidine]-1′-carbonyl)oxy)-N-benzyl-2,2-dimethylbutanamide], in data set [1], the H entry is reported as “+”. The PK entry in data set [2] is reported as “+”. In the data set with necrosis, the “EC50(nM)” value is reported as “weak”. The L result in data set [3] was “+”.
For the molecule `CCC(C)(C)C(=O)N(Cc1ccccc1)OC(=O)Oc1ccccc1` [Compound 58, N-benzyl-2,2-dimethyl-N-((phenoxycarbonyl)oxy)butanamide], in data set [1], the H entry is recorded as “+”. Besides, in data set [2], the PK result is given as “+”. The EC50 in the data set on necrosis came out at 45.1 nM. The L result in data set [3] is “+”.
`CCC(C)(C)C(=O)N(Cc1ccccc1)OC(=O)OCC(C)C` [Compound 59, N-benzyl-N-((isobutoxycarbonyl)oxy)-2,2-dimethylbutanamide]: the H result in data set [1] is “+”. In addition, the PK entry in data set [2] is “+”. The EC50 in the data set on necrosis is 44.8 nM. Further, the L entry in data set [3] is given as “+”.
Take `CCC(C)(C)C(=O)N(Cc1ccccc1)OC(=O)c1cccnc1` [Compound 60, N-benzyl-2,2-dimethyl-N-(nicotinoyloxy)butanamide]: the H result in data set [1] is reported as “+”. Besides, the PK result in data set [2] is given as “+”. In the data set with necrosis, the EC50 was 83.5 nM. Besides, the L result in data set [3] was “+”.
Regarding `[2H]CC([2H])C(C)(C)C(=O)N(Cc1cc(F)cc(F)c1)OC(=O)OCC` (stereo not shown) [Compound 61, N-(3,5-difluorobenzyl)-N-((ethoxycarbonyl)oxy)-2,2-dimethylbutanamide-3,4-d2], the H result in data set [1] was “+”. Moreover, the PK result in data set [2] was “+”. Further, in the data set on necrosis, the EC50 was found to be 128 nM. Moreover, the L result in data set [3] is reported as “+”.
For `[2H]CC([2H])C(C)(C)C(=O)N(Cc1cc(F)cc(F)c1)OC(=O)c1cccnc1` (stereo not shown) [Compound 62, N-(3,5-difluorobenzyl)-2,2-dimethyl-N-(nicotinoyloxy)butanamide-3,4-d2], the H result in data set [1] is reported as “+”. For the same molecule, in data set [2], the PK result was “+”. Further, the EC50 in the data set with necrosis is 45.3 nM. Moreover, the L entry in data set [3] is on record as “+”.
As for `CCC(C)(C)C(=O)N(Cc1ccccc1)OCOC(=O)C(C)(C)C` [Compound 63, ((N-benzyl-2,2-dimethylbutanamido)oxy)methyl pivalate], the H entry in data set [1] is “+”. The PK result in data set [2] is listed as “+”. In the data set on necrosis, the EC50 amounted to 62.9 nM. Also, the L entry in data set [3] is reported as “+”.
On to `[2H]CC([2H])C(C)(C)C(=O)N(Cc1cc(F)cc(F)c1)OCOC(=O)C(C)(C)C` (stereo not shown) [Compound 64, ((N-(3,5-difluorobenzyl)-2,2-dimethylbutanamido-3,4-d2)oxy)methyl pivalate], for which the H result in data set [1] is recorded as “+”. The PK entry in data set [2] is given as “+”. For the same molecule, the EC50 in the data set on necrosis worked out at 91.4 nM. Moreover, in data set [3], the L result is reported as “+”.
`[2H]CC([2H])C(C)(C)C(=O)N(Cc1cc(F)cc(F)c1)OC(=O)OCCOC` (stereo not shown) [Compound 65, N-(3,5-difluorobenzyl)-N-(((2-methoxyethoxy)carbonyl)oxy)-2,2-dimethylbutanamide-3,4-d2]: the H result in data set [1] is “+”. Further, the PK entry in data set [2] is recorded as “+”. In addition, the concentration giving a half-maximal response (EC50) in the data set on necrosis is 37.2 nM. In data set [3], the L result was “+”.
Regarding `[2H]CC([2H])C(C)(C)C(=O)N(Cc1cc(F)cc(F)c1)OC(=O)OCCOCCOC` (stereo not shown) [Compound 66, N-(3,5-difluorobenzyl)-N-(((2-(2-methoxyethoxy)ethoxy)carbonyl)oxy)-2,2-dimethylbutanamide-3,4-d2], the H result in data set [1] is listed as “+”. In addition, the PK entry in data set [2] is reported as “+”. The EC50 in the data set on necrosis was 46 nM. The L entry in data set [3] is given as “+”.
For `[2H]CC([2H])C(C)(C)C(=O)N(Cc1cc(F)cc(F)c1)OC(=O)OCCOCCOCCOC` (stereo not shown) [Compound 67, N-((2,5,8,11-tetraoxadodecanoyl)oxy)-N-(3,5-difluorobenzyl)-2,2-dimethylbutanamide-3,4-d2], the H result in data set [1] is reported as “+”. The PK entry in data set [2] was “+”. The EC50 in the data set on necrosis was determined as 58.5 nM. Further, the L result in data set [3] is “+”.
For the molecule `CCC(C)(C)C(=O)N(Cc1ccccc1)OP(=O)(N(C)C)N(C)C` [Compound 68, N-benzyl-N-((bis(dimethylamino)phosphoryl)oxy)-2,2-dimethylbutanamide], the H entry in data set [1] is reported as “+”. In data set [2], the PK entry is listed as “+”. Besides, in the data set on necrosis, the half-maximal effective concentration (EC50) was found to be 1620 nM. Moreover, the L result in data set [3] is reported as “+”.
On to `CCC(C)(C)C(=O)N(Cc1ccccc1)OCOP(=O)(OCc1ccccc1)OCc1ccccc1` [Compound 69, dibenzyl (((N-benzyl-2,2-dimethylbutanamido)oxy)methyl) phosphate], for which the H result in data set [1] is on record as “+”. In addition, the PK result in data set [2] is “+”. Besides, the “EC50(nM)” value with necrosis is “weak”. In addition, the L entry in data set [3] is given as “+”.
Regarding `CCC(C)(C)C(=O)N(Cc1ccccc1)OP(=O)(OC)OC` [Compound 70, dimethyl ((N-benzyl-2,2-dimethylbutanamido)oxy)phosphonate], the H result in data set [1] was “+”. In addition, the PK entry in data set [2] is given as “+”. In the data set with necrosis, the EC50 was found to be 1700 nM. Further, the L entry in data set [3] is “+”.
`CCC(C)(C)C(=O)N(Cc1ccccc1)OP(=O)(O)O` [Compound 71, ((N-benzyl-2,2-dimethylbutanamido)oxy)phosphonic acid]: the H entry in data set [1] is on record as “+”. Also, the PK entry in data set [2] was “+”. The EC50 with necrosis stood at 28.7 nM. Further, the L entry in data set [3] is given as “+”.
For `CCC(C)(C)C(=O)N(Cc1ccccc1)OC(=O)CCCC[C@@H]1SC[C@@H]2NC(=O)N[C@@H]21` [Compound 72, N-benzyl-2,2-dimethyl-N-((5-((3aS,4S,6aR)-2-oxohexahydro-1H-thieno[3,4-d]imidazol-4-yl)pentanoyl)oxy)butanamide], the H entry in data set [1] is “+”. For the same molecule, the PK entry in data set [2] is on record as “+”. Besides, the EC50 with necrosis was determined as 159 nM. Moreover, in data set [3], the L entry is reported as “+”.
`CCC(C)(C)C(=O)N(Cc1ccccc1)OCc1ccc(O)cc1` [Compound 73, N-benzyl-N-((4-hydroxybenzyl)oxy)-2,2-dimethylbutanamide]: the H entry in data set [1] is reported as “+”. For the same molecule, the PK result in data set [2] is “+”. Besides, the EC50 in the data set on necrosis was determined as 489 nM. Further, in data set [3], the L entry is “+”.
For `CCC(C)(C)C(=O)N(Cc1ccccc1)OC(=O)C(C)(C)C` [Compound 77, N-benzyl-2,2-dimethyl-N-(pivaloyloxy)butanamide], the H entry in data set [1] was “+”. Further, the PK result in data set [2] was “+”. The half-maximal effective concentration (EC50) in the data set with necrosis was found to be 6830 nM. In addition, the L entry in data set [3] is listed as “+”.
For the molecule `CCC(C)(C)C(=O)N(Cc1ccccc1)OC(=O)[C@@H](NC(=O)OC(C)(C)C)C(C)C` [Compound 79, tert-butyl (S)-(1-((N-benzyl-2,2-dimethylbutanamido)oxy)-3-methyl-1-oxobutan-2-yl)carbamate], the H entry in data set [1] is recorded as “+”. Moreover, in data set [2], the PK entry is given as “+”. Moreover, the EC50 with necrosis amounted to 1430 nM. Besides, in data set [3], the L result is recorded as “+”.
As to `CCC(C)(C)C(=O)N(Cc1ccccc1)OC(=O)[C@@H](N)C(C)C` [Compound 80, N-((L-valyl)oxy)-N-benzyl-2,2-dimethylbutanamide], the H entry in data set [1] is given as “+”. For the same molecule, the PK result in data set [2] is given as “+”. Besides, the EC50 in the data set with necrosis amounted to 24.2 nM. For the same molecule, the L result in data set [3] is listed as “+”.
Regarding `CCC(C)(C)C(=O)N(Cc1ccccc1)OC(=O)[C@@H]1CCCN1C(=O)OC(C)(C)C` [Compound 81, tert-butyl (S)-2-(((N-benzyl-2,2-dimethylbutanamido)oxy)carbonyl)pyrrolidine-1-carboxylate], the H entry in data set [1] is on record as “+”. In addition, in data set [2], the PK entry is “+”. Also, the EC50 in the data set on necrosis was 3250 nM. In data set [3], the L entry is recorded as “+”.
For `CCC(C)(C)C(=O)N(Cc1ccccc1)OC(=O)CN(C)C` [Compound 82, N-benzyl-N-((dimethylglycyl)oxy)-2,2-dimethylbutanamide], in data set [1], the H entry was “+”. In addition, the PK result in data set [2] is “+”. Also, in the data set on necrosis, the EC50 turned out to be 116 nM. For the same molecule, the L entry in data set [3] is recorded as “+”.
Regarding `CCC(C)(C)C(=O)N(Cc1ccccc1)OC(=O)[C@@H](N)CO` [Compound 83, N-((L-seryl)oxy)-N-benzyl-2,2-dimethylbutanamide], the H entry in data set [1] was “+”. For the same molecule, the PK result in data set [2] is on record as “+”. In addition, the EC50 in the data set with necrosis was 898 nM. In data set [3], the L entry is recorded as “+”.
